Laboratory results: patent US20020054941A1, “Methods and compositions to enhance tenderness and value of meat” (The Board of Regents of the University of Nebraska, priority 2000, published 2002)
Marks after values point to notes of the source that are not given here.

Assays:
[1] = tested on: sternomandibularis beef muscles; assay: pH of pre-rigor injected sectioned muscle; settings: injection 10% of muscle weight, 200 mM (glucose, calcium chloride 300 mM)
Description: (§1) Pre-rigor beef muscle was sectioned and the sections were injected at approximately 1 hour post-mortem with a volume of treatment solution equal to 10% of the muscle weight. Objective color measurements were taken on pieces of each muscle section and the pieces were then frozen, powdered and stored at −80° C. for up to 10 days before testing pH and analyzing oxidation-reduction potential. Shear force was evaluated as described immediately above. Solutions used in this procedure were as follows: sodium citrate (200 mM), sodium acetate (200 mM), glucose (300 mM), calcium citrate (200 mM), calcium chloride (300 mM), injection with water, and no injection (control). The calcium citrate solution was prepared as a suspension using 0.25% carrageenan and 200 mM calcium citrate due to its insolubility in water. However, use of calcium citrate can be optimized by increasing solubility by means known in the art.

[2] = tested on: sternomandibularis beef muscles; assay: Shear force of pre-rigor injected sectioned muscle; settings: 200 mM (glucose, calcium chloride 300 mM)
Description: Pre-rigor beef muscle was sectioned into 100 g. samples at approximately 3 hours post-mortem. The pieces were injected with 10 mL of treatment solution followed by marination in the solution for 24 hours at 2° C. before testing pH and recording visual color of the muscle sections. For evaluation of shear force, samples were thawed, cooked, sliced (approximately 6 mm by 6 mm) and then cooled before readings were taken. The solutions used for this procedure were as described above for homogenized muscle.
as §1

[3] = tested on: semimembranosus beef muscles; assay: Muscle pH, pre-rigor injection of whole muscle; settings: for pH, 0 h: 0 h (before injection); for pH, 24 h / pH, 72 h: 200 mM, calcium chloride 300 mM
Description: (§2) Experiment were conducted to test the effects of pre-rigor injection of several compounds. Effects of these compounds on pH, color, tenderness and other related traits of low-value beef cuts were investigated. Ten steers (22 to 24 mo of age, 515 to 676 kg live weight) were slaughtered according to current industry procedures. Pre-rigor semimembranosus (from the round), triceps brachii and supraspinatus muscles (from the chuck) were excised, after evisceration (approximately 1 hour post-mortem), from both sides of the carcass. Muscle sections were randomly assigned to the treatments: sodium citrate (NaC; 200 mM), sodium fluoride (NaF; 200 mM), sodium acetate (NaA; 200 mM), and calcium chloride (CaCl2; 300 mM). The control samples remained on the carcass at 2° C. for 24 hours to simulate commercial conditions. Following a cooling, control muscles were removed from each carcass (4 replicates), vacuum packaged and transferred to the holding cooler with the other cuts at 2° C. Calcium chloride treatment was included to be compared with the other treatments.
(§3) At 2 hours post-mortem, each muscle was injected with a volume equal to 8% of the muscle weight using a four-needle hand injector. The temperature of solutions were 4° C. Each muscle was individually treated (2% of solution was added to give a total of 10% of muscle weight) and tumbled in a 75-pound capacity tumbler (Röschermatic, Oshabrück, Germany) for 30 min to insure uniform distribution of the solution.
(§4) Samples of each muscle (approximately 100 g) were taken at 0 hour (before injection), 24, and 72 hours after injection for determination of pH, oxidation-reduction potential, glycogen content, R-values, NAD, and NADH. The samples were then immediately frozen in liquid nitrogen and stored at −80° C. until they were powdered and analyzed. Fresh muscle samples (approximately 20 g) were taken at 72 hours after injection and assayed immediately for water holding capacity and sarcomere length.
(§5) Duplicate pre-rigor samples (5 g) were weighed from powdered sample and homogenized (Polytron, Brinkman Instruments, New York, N.Y.) in 50 mL of 5 mM iodoacetic acid, 150 mM potassium chloride (pH 7.0, 24° C.) to stop glycolysis (Ahn et al., 1992). The pH of the suspension was measured with a general purpose electrode (Corning Glass Works, Corning, N.Y.) attached to an Orion Model SA 720 pH meter (Orion Research, Inc., Boston, Mass.). Post-rigor muscle pH was determined by homogenizing 5 g of sample in 50 mL of deionized water (Winger et al., 1979).

[4] = tested on: supraspinatus beef muscles; assay: Muscle pH, pre-rigor injection of whole muscle; settings: for pH, 0 h: 0 h (before injection); for pH, 24 h / pH, 72 h: 200 mM, calcium chloride 300 mM
Description: as §2, §3, §4, §5

[5] = tested on: triceps brachii beef muscles; assay: Muscle pH, pre-rigor injection of whole muscle; settings: 200 mM, calcium chloride 300 mM; for pH, 0 h: 0 h (before injection); for pH, 24 h: 24 h after injection; for pH, 72 h: 72 h after injection
Description: as §2, §3, §4, §5

[6] = tested on: semimembranosus beef muscles; assay: Glycogen content, pre-rigor injection of whole muscle; settings: for Glycogen, 0 h: 0 h (before injection); for Glycogen, 24 h / Glycogen, 72 h: 200 mM, calcium chloride 300 mM
Description: as §2, §3, §4
(§6) Glycogen extraction was performed in duplicate with 3 g of frozen-powdered muscle sample, which was homogenized with 0.6 N perchloric acid. Amylo-α-1,4-α-1,6- glucosidase from Aspergillus niger (No. A3514. Sigma Chemical, St. Louis, Mo.) was used for the breakdown of the glycogen molecules to free glucose following the method described by Roehrig and Allred (1974). Homogenate was incubated for 2 hours at 37° C., then 100 μL of 3 N perchloric acid was added to precipitate the proteins. After centrifugation, the supernatant was stored at 0-4° C., until analyzed, which was within 2 weeks.
(§7) The assay for glucose was run as described by Dalrymple and Hamm (1973) and Roehrig and Allred (1974), using glucose-6-phosphate dehydrogenase (No. G8878. Sigma Chemical, St. Louis, Mo.) and hexokinase (No. H5500. Sigma Chemical, St. Louis, Mo.). Briefly, the method involves an exoglucosidase, Amylogucosidase, from Aspergillus niger which hydrolyses the -α-D-(1-4) and -α-D-(1-6)-linkages of glycogen. The glucose formed is specifically determined with hexokinase and glucose-6-phosphate dehydrogenase. The glucose liberated after hydrolysis of glycogen is proportional to the increase of absorbance measured at 340 nm. Fifty μL of sample was incubated with 1 mL ATP, NADP, Glucose-6-phosphate dehydrogenase buffer and 5 μL hexokinase at 37° C. for 15 min. Absorbance was measured at 340 nm wavelength, light path=1 cm. The muscle glycogen content was calculated with the following formula: Glycogen (μmol glucose/g wet muscle weight)=111.882×absorbance. 111.882 is the dilution factor.

[7] = tested on: supraspinatus beef muscles; assay: as above; settings: for Glycogen, 0 h: 0 h (before injection); for Glycogen, 24 h / Glycogen, 72 h: 200 mM, calcium chloride 300 mM
Description: as §2, §3, §4, §6, §7

[8] = tested on: triceps brachii beef muscles; assay: as above; settings: 200 mM, calcium chloride 300 mM; for Glycogen, 0 h: 0 h (before injection)
Description: as §2, §3, §4, §6, §7

[9] = tested on: semimembranosus beef muscles; assay: Warner-Bratzler shear force, pre-rigor injection of whole muscle; settings: 200 mM, calcium chloride 300 mM; for Shear force, 3 d: 3 d postmortem; for Shear force, 7 d: 7 d postmortem; for Shear force, 14 d: 14 d postmortem
Description: as §2, §3
(§8) Tenderness of samples was evaluated by measuring Warner-Bratzler shear force. Steaks (2.54-cm thick) from the middle of each muscle were cut and frozen at 3, 7 and 14 days postmortem. Frozen steaks (2.54 cm thick) were thawed at 4° C. for 24 hours and cooked on Farberware Open Hearth Broilers (Model 350A Walter Kidde, Bronx, N.Y.) to an internal temperature of 40° C., turned, and cooked to a final internal temperature of 70° C. (AMSA, 1995). Temperature was monitored using an OMEGA thermocouple thermometer type T (Omega Engineering, Inc., Stamford, Conn.) inserted into the geometric center of a steak. The cooked steaks were chilled 2 hours at 2° C., and then 8 cores (1.27-cm diameter) were removed parallel to the muscle fiber orientation. Cores were sheared once each on an Instron Universal Testing Machine model 55R1123 (Instron, Canton, Mass.) with a Warner-Braztler attachment. The Instron was set up with a 500 kg load cell, full scale load=1 (0-10 kg), and crosshead speed=250 mm/mim.

[10] = tested on: supraspinatus beef muscles; assay: as above; settings: 200 mM; for Shear force, 3 d: 3 d postmortem; for Shear force, 3 d / Shear force, 7 d: calcium chloride 300 mM; for Shear force, 7 d: 7 d postmortem; for reduced shear force compared with controls: supraspinatus, 3 days post-mortem, CaCl2 300 mM
Description: as §2, §3, §8

[11] = tested on: triceps brachii beef muscles; assay: as above; settings: 200 mM, calcium chloride 300 mM; for Shear force, 3 d: 3 d postmortem; for Shear force, 7 d: 7 d postmortem; for Shear force, 14 d: 14 d postmortem
Description: as §2, §3, §8

Compound | PH (0 h) [1] | pH, 72 h [1] | Shear force, kg (72 h) [2] | pH, 0 h [3] | pH, 24 h [3] | pH, 72 h [3] | pH, 0 h [4] | pH, 24 h [4] | pH, 72 h [4] | pH, 0 h [5] | pH, 24 h [5] | pH, 72 h [5] | Glycogen, 0 h [6] | Glycogen, 24 h [6] | Glycogen, 72 h [6] | Glycogen, 0 h [7] | Glycogen, 24 h [7] | Glycogen, 72 h [7] | Glycogen, 0 h [8] | Glycogen, 24 h [8] | further results
O=C([O-])CC(O)(CC(=O)[O-])C(=O)[O-].O=C([O-])CC(O)(CC(=O)[O-])C(=O)[O-].[Ca+2].[Ca+2].[Ca+2] [Calcium citrate, calcium citrate] | 6.92 | 5.82^cd | 7.57^a kg | – | – | – | – | – | – | – | – | – | – | – | – | – | – | – | – | – | –
[Ca+2].[Cl-].[Cl-] [Calcium chloride, calcium chloride, reference compound] | 6.77 | 5.88^d | 6.61^a kg | 6.76 | 5.77^b | 5.60^c | 6.75 | 5.88^c | 5.54^c | 6.77 | 5.84^b | 5.67^b | 58.18 μmol/g muscle | 45.90^ab μmol/g muscle | 37.10^ab μmol/g muscle | 37.98 μmol/g muscle | 26.75 μmol/g muscle | 19.31^b μmol/g muscle | 39.14 μmol/g muscle | 28.76^b μmol/g muscle | Glycogen, 72 h [8]: 25.01^bc μmol/g muscle; Shear force, 3 d [9]: 6.28 kg; Shear force, 7 d [9]: 5.36 kg; Shear force, 14 d [9]: 4.03 kg; Shear force, 3 d [10]: 5.55^c kg; Shear force, 7 d [10]: 4.84^b kg; reduced shear force compared with controls [10]: 1.73 kg; Shear force, 3 d [11]: 4.95^bc kg; Shear force, 7 d [11]: 4.87^b kg; Shear force, 14 d [11]: 4.07 kg
[F-].[Na+] [Sodium fluoride, sodium fluoride, reference compound] | – | – | – | 6.70 | 6.08^a | 5.97^a | 6.72 | 6.23^a | 6.09^a | 6.76 | 6.07^a | 5.95^a | 62.90 μmol/g muscle | 54.03^b μmol/g muscle | 43.77^a μmol/g muscle | 45.49 μmol/g muscle | 37.37 μmol/g muscle | 30.46^a μmol/g muscle | 48.22 μmol/g muscle | 43.98^a μmol/g muscle | Glycogen, 72 h [8]: 37.30^a μmol/g muscle; Shear force, 3 d [9]: 6.02 kg; Shear force, 7 d [9]: 5.56 kg; Shear force, 14 d [9]: 4.60 kg; Shear force, 3 d [10]: 6.13^bc kg; Shear force, 7 d [10]: 4.80^b kg; reduced shear force compared with controls [10]: 1.15 kg; Shear force, 3 d [11]: 5.18^bc kg; Shear force, 7 d [11]: 4.82^b kg; Shear force, 14 d [11]: 4.09 kg
CC(=O)[O-].[Na+] [Sodium acetate, sodium acetate] | 6.86 | 5.80^cd | 9.88^ab kg | 6.75 | 5.70^b | 5.38^d | 6.81 | 5.85^c | 5.64^c | 6.78 | 5.80^b | 5.48^c | 64.24 μmol/g muscle | 40.88^b μmol/g muscle | 28.64^b μmol/g muscle | 42.83 μmol/g muscle | 24.43 μmol/g muscle | 18.10^b μmol/g muscle | 49.53 μmol/g muscle | 28.74^b μmol/g muscle | Glycogen, 72 h [8]: 27.22^b μmol/g muscle; Shear force, 3 d [9]: 6.61 kg; Shear force, 7 d [9]: 5.78 kg; Shear force, 14 d [9]: 5.08 kg; Shear force, 3 d [10]: 7.85^a kg; Shear force, 7 d [10]: 6.95^a kg; Shear force, 7 d ([10]; listed as NaA): significant increase in shear force; Shear force, 3 d [11]: 6.47^a kg; Shear force, 7 d [11]: 5.96^a kg; Shear force, 14 d [11]: 4.67 kg
